Results as given in patent US6676932B2, “Ultraviolet absorbent, photostabilizer, ultraviolet ray-absorbing composition, photostabilized composition and external preparation for skin” (Shiseido Co., Ltd., priority 2001, dated 2004).

Tests used:
skin [1] = experiment: Test of skin irritation: continuous application test (Test Example 3 i); assay type: in vivo, human; settings: 10 wt % ultraviolet absorbent, twice daily for 4 weeks
Description: (§1) The same samples as in the Test Example 2 were used (at a 10 wt % amount of an ultraviolet absorbent).
Continuous application test was carried out for 20 healthy subjects per one group. An appropriate amount of each of the samples was coated twice daily for 4 weeks. The effects were assessed according to the following assessment standards.
Mean score was calculated for the determination of the effect on the basis of the following standards.
(§2) ◯: mean score of more than 0 to less than 1.
(§3) Δ: mean score of 1 or more to less than 2.
(§4) x: mean score of 2 or more.

[2] = Stability test in combination with inorganic powder-based ultraviolet shielding agent, sunscreen cream (Test Example 5); assay type: physicochemical; settings: sunscreen cream with inorganic powders; ultraviolet absorbent 10.0 wt %; 50° C. for 2 months; visual observation
Description: A sunscreen cream of the following formulation was prepared and stored at 50° C. for 2 months. Under visual observation of the color change, the stability of the inventive pyridazine derivative in combination with inorganic powder-based ultraviolet screening agents commonly in blend as external preparations for skin for the purpose of ultraviolet prevention was examined.
After the ingredient 2 was added to the ingredient 1 to swell the ingredient 2, the ingredients 3 to 11 were mixed with the resulting mixture under heating, for sufficient dispersion and dissolution. While keeping the dispersion at 70° C., a solution of the mixture of the ingredients 12 to 15 was gradually added to the dispersion under thorough emulsification with a homomixer. The resulting mixture was cooled to 30° C. under sufficient stirring to prepare sunscreen creams.

sunburn = experiment: Ultraviolet preventive effect, application test on beach in summer (Test Example 2); assay type: in vivo, human
Description: An application test was carried out on beach in summer. Equal volumes of samples were individually coated on back halves of subjects. After exposure to direct daylight, the degree of sunburn was assessed according to the following assessment standards. Each group consists of 10 subjects.
Prominently effective: none or almost no sunburn symptom was observed.
Effective: light sunburn symptom was observed.
Ineffective: strong sunburn symptom was observed.
⊚: prominently effective or effective for 80% or more of the subjects.
◯: prominently effective or effective for 50% or more to less than 80% of the subjects.
Δ: prominently effective or effective for 30% or more to less than 50% of the subjects.
x: prominently effective or effective for less than 30% of the subjects.
The aqueous phase and the alcohol phase were separately prepared and then mixed together.
Propylene glycol was added to and dissolved in ion exchange water. The resulting solution was retained at 70° C. under heating (aqueous phase). Other ingredients were mixed […]. The resulting mixture was melted under heating and retained at 70° C. (oil phase). The oil phase was added to the aqueous phase, for preliminary emulsification with a homomixer to homogeneity. Under thorough mixing, subsequently, the mixture was cooled to 30° C.

[3] = Photostability test of aqueous solutions under daylight (Test Example 4); assay type: physicochemical; settings: aqueous solution, daylight for 2 weeks (80 MJ)
Description: Aqueous solutions of the pyridazine derivative of the invention were exposed to daylight for 2 weeks (at a daylight exposure of 80 MJ). Subsequently, the remaining ratio and the change of the appearance were examined to measure the ultraviolet spectra with a spectrophotometer (solvent: water; concentration of 10 ppm and optical path length of 1 cm). The area under ultraviolet spectra curve from 290 nm to 400 nm were determined by integration to compare the area with the area before daylight exposure.
The remaining ratio and the change of the area under the ultraviolet spectrum were determined on the basis of the following standards.
⊚: 95% or more of those before daylight exposure.
◯: 90% or more to less than 95% of those before daylight exposure.
Δ: 70% or more to less than 90% of those before daylight exposure.
x: less than 70% of those before daylight exposure.

[4] = Stabilization effect on perfume under daylight exposure (Test Examples 92 to 181); assay type: physicochemical; design: key: ◯: no change; Δ: almost no change; x: change; settings: daylight exposure (80 MJ)
Description: Each test sample was prepared for observation of the change of the odor of the test sample (determined by perfume coordinator) before and after daylight exposure (80 MJ).

skin [5] = experiment: Test of skin irritation: 24-hour occlusion patch test (Test Example 3 ii); assay type: in vivo, human; settings: 10 wt % ultraviolet absorbent
Description: as §1
20 Healthy male and female volunteers per one group were carried out in a 24-hour occlusion patch test, using a fin chamber on forearm curves. Assessment was done on the basis of the following assessment standards.
Mean score was determined for the assessment on the basis of the following standards.
as §2, §3, §4

[6] = Dye stabilization effect under daylight exposure (Test Examples 6-91); assay type: physicochemical; design: key to Δ E: color difference ΔE in Lab vs. color before daylight exposure; key to Appearance (visual determination): ◯: no change; Δ: almost no change; x: change; settings: photostabilizer 0.05 wt %, daylight exposure (80 MJ)
How it was run: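 Test samples exposed to daylight to 80 MJ; appearance judged visually. Colour measured by spectrophotometer in Lab coordinates, with ΔE calculated relative to pre-exposure values (L1, a1, b1).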

[7] = Drug stabilization effect under daylight exposure (Test Examples 182 to 211); assay type: physicochemical; design: key to Appearance (visual determination): ◯: no change; Δ: almost no change; x: change; settings: drug salicylic acid 0.1 wt %, photostabilizer 0.05 wt %, daylight exposure (80 MJ)
Description: For observation of the change of the appearance of each test sample (determination based on visual observation) and the measurement of the remaining ratio by liquid chromatography before and after daylight exposure (80 MJ), the test sample was prepared.

[8] = dye Blue 1 (Brilliant Blue FCF) 0.0001 wt %
[9] = dye Green 3 (Fast Green FCF) 0.001 wt %
[10] = dye Red 227 (Acid Fuchsine D) 0.0001 wt %
[11] = dye Yellow 5 (Sunset Yellow FCF) 0.001 wt %
[12] = dyes Red 227 (Acid Fuchsine D) 0.0001 + Yellow 5 (Sunset Yellow FCF) 0.0001 wt %

Color change [2]: no | Remaining ratio (%) ([7]; liquid chromatography): 98.4%
Structure (SMILES): Oc1nnccc1N1CCCCC1 [3-Hydroxy-4-piperidinopyridazine, 3-hydroxy-4-piperidinopyridazine]
Determination (skin reaction, continuous application test) (skin [1]; cream): ⊚ (mean score of 0) | Determination (skin reaction, continuous application test) (skin [1]; lotion): ⊚ (mean score of 0) | Ultraviolet prevention effect (sunburn; cream, blend amount 0.0005 wt %): Δ (prominently effective or effective for 30% or more to less than 50% of the subjects) | Ultraviolet prevention effect (sunburn; cream, blend amount 0.001 wt %): ◯ (prominently effective or effective for 50% or more to less than 80% of the subjects) | Ultraviolet prevention effect (sunburn; cream, blend amount 0.01 wt %): ⊚ (prominently effective or effective for 80% or more of the subjects) | Ultraviolet prevention effect (sunburn; cream, blend amount 1 wt %): ⊚ (prominently effective or effective for 80% or more of the subjects) | Ultraviolet prevention effect (sunburn; cream, blend amount 5 wt %): ⊚ (prominently effective or effective for 80% or more of the subjects) | Ultraviolet prevention effect (sunburn; cream, blend amount 10 wt %): ⊚ (prominently effective or effective for 80% or more of the subjects) | Ultraviolet prevention effect (sunburn; cream, blend amount 20 wt %): ⊚ (prominently effective or effective for 80% or more of the subjects) | Ultraviolet prevention effect (sunburn; lotion, blend amount 0.0005 wt %): Δ (prominently effective or effective for 30% or more to less than 50% of the subjects) | Ultraviolet prevention effect (sunburn; lotion, blend amount 0.001 wt %): ◯ (prominently effective or effective for 50% or more to less than 80% of the subjects) | Ultraviolet prevention effect (sunburn; lotion, blend amount 0.01 wt %): ⊚ (prominently effective or effective for 80% or more of the subjects) | Ultraviolet prevention effect (sunburn; lotion, blend amount 1 wt %): ⊚ (prominently effective or effective for 80% or more of the subjects) | Ultraviolet prevention effect (sunburn; lotion, blend amount 5 wt %): ⊚ (prominently effective or effective for 80% or more of the subjects) | Ultraviolet prevention effect (sunburn; lotion, blend amount 10 wt %): ⊚ (prominently effective or effective for 80% or more of the subjects) | Ultraviolet prevention effect (sunburn; lotion, blend amount 20 wt %): ⊚ (prominently effective or effective for 80% or more of the subjects) | Remaining ratio [3]: ⊚ (95% or more of those before daylight exposure) | Change of area under ultraviolet spectrum ([3]; 290 nm to 400 nm): ⊚ (95% or more of those before daylight exposure) | odor determination ([4]; base perfume Rose, photostabilizer 0.05 wt %): ◯ | odor determination ([4]; base perfume Woody, photostabilizer 0.1 wt %): ◯ | odor determination ([4]; natural perfume Rose oil, photostabilizer 0.05 wt %): ◯ | Determination (skin reaction, patch test) (skin [5]; cream): ⊚ (mean score of 0) | Determination (skin reaction, patch test) (skin [5]; lotion): ⊚ (mean score of 0) | Appearance (visual determination) [6, 8]: ◯ | Δ E [6, 8]: 1.24 | Appearance (visual determination) [6, 9]: ◯ | Δ E [6, 9]: 0.46 | Appearance (visual determination) [6, 10]: ◯ | Δ E [6, 10]: 0.54 | Appearance (visual determination) [6, 11]: ◯ | Δ E [6, 11]: 0.58 | Appearance (visual determination) [6, 12]: ◯ | Δ E [6, 12]: 0.65 | Appearance (visual determination) [7]: ◯
